In this data set the test system is GENE-TOX genotoxicity assays, various organisms and cells. In words: GENE-TOX mutagenicity studies. The following applies: for call: Assay Type: In vivo carcinogenicity studies.
Where [1] appears, read: Species/Cell Type: Chinese hamster lung (V79) cells, Assay Type: Forward gene mutation at the HPRT or ouabain locus, Assay Code: V79-, Evaluation Type: Evaluation A (Pre-1980).
Setting [2] is: Species/Cell Type: Salmonella typhimurium (one or more of the five standard strains: TA98, TA100, TA1535, TA1537, and TA1538), Assay Type: Histidine reverse gene mutation, Ames assay, Assay Code: SALT, Evaluation Type: Evaluation A (Pre-1980).
Setting [3] is: Species/Cell Type: Salmonella typhimurium (one or more of the five standard strains: TA98, TA100, TA1535, TA1537, and TA1538), Assay Type: Histidine reverse gene mutation, Ames assay, Assay Code: SAL+, Evaluation Type: Evaluation A (Pre-1980).
The mark [4] stands for this setting: Species/Cell Type: Bacillus subtilis (H17 vs M45), Assay Type: Rec-assay, spot test, DNA effects (bacterial DNA repair), Assay Code: REW+, Evaluation Type: Evaluation A (Pre-1980).
Where [5] appears, read: Species/Cell Type: Bacillus subtilis (H17 vs M45), Assay Type: Rec-assay, spot test, DNA effects (bacterial DNA repair), Assay Code: REWT, Evaluation Type: Evaluation A (Pre-1980).
Setting [6] is: Species/Cell Type: Escherichia coli WP2 UVRA, Assay Type: Tryptophan reverse gene mutation, Assay Code: WPU+, Evaluation Type: Evaluation A (Pre-1980).
Where [7] appears, read: Species/Cell Type: Mammalian polychromatic erythrocytes, Assay Type: Micronucleus test, chromosome aberrations, Assay Code: MNT+U, Dose Response: Unconfirmed positive response, Evaluation Type: Evaluation B (Post-1980).
[8] abbreviates: Species/Cell Type: Nonhuman, Assay Code: CCG+, Evaluation Type: Evaluation A (Pre-1980).
Where [9] appears, read: Species/Cell Type: Escherichia coli WP2, Assay Type: Tryptophan reverse gene mutation, Assay Code: WP2+, Evaluation Type: Evaluation A (Pre-1980).

The source made the active and inactive calls. How the calls were made is not given here.

As to `O[C@@H]1c2cccc3ccc4cc5ccccc5c(c4c23)[C@@H]1O`, the mutagenic call is “inactive; negative” under setting [1] and “no conclusion” under setting [2]. For the compound `O=C1NC(c2ccc([N+](=O)[O-])s2)Nc2ccccc21` (stereo not given), under setting [3], the mutagenic call is “active; positive”.

In the case of `Cc1cc(O)c2c(c1O)C(=O)C13C(=C2O)C(=O)C2C(O)C1C1C(O)C3C(=O)C3=C(O)c4c(O)cc(C)c(O)c4C(=O)C321` (stereo not given), the mutagenic call is “active; positive” under setting [4] and “active; positive” (Species/Cell Type: Human lymphocytes or leukocytes, Assay Type: Chromosome aberrations in vitro, Assay Code: CY7+, Evaluation Type: Evaluation A (Pre-1980)). Besides, under “Species/Cell Type: Nonhuman, Assay Code: CCG+L, Evaluation Type: Evaluation A (Pre-1980)”, the call is “active; positive”.

In the case of `O=[N+]([O-])c1cc([N+](=O)[O-])c2ccc3cccc4ccc1c2c43`, where the note is “Species/Cell Type: Chinese hamster ovary (CHO) cells, Assay Type: Forward gene mutation at the HPRT locus, Assay Code: CHO+*, Activation: With metabolic activation, Evaluation Type: Evaluation B (Post-1980)”, the mutagenic call was “active; positive”. With `CCCN(N=O)/C(N)=N/[N+](=O)[O-]`, the mutagenic call was “active; positive” (Species/Cell Type: Arabidopsis species, Assay Type: Gene mutation, Assay Code: ARM+, Evaluation Type: Evaluation A (Pre-1980)) and “active; positive” under setting [3]. As for `O[C@@H]1[C@H]2O[C@H]2c2cc3c(ccc4ccccc43)cc2[C@H]1O`, the mutagenic call runs as follows: (Species/Cell Type: Chinese hamster lung (V79) cells, Assay Type: Forward gene mutation at the HPRT or ouabain locus, Assay Code: V79+, Evaluation Type: Evaluation A (Pre-1980)) “active; positive”; under setting [3], “active; positive”.

For the compound `CN1CCN(CCCN2c3ccccc3S(=O)c3ccccc32)CC1`, the mutagenic call (Species/Cell Type: Human lymphocytes, Assay Type: Sister-chromatid exchange (SCE) in vitro, Assay Code: SCLT, Evaluation Type: Evaluation B (Post-1980)) is recorded as “no conclusion” and the mutagenic call (Species/Cell Type: Human, Assay Type: Sister-chromatid exchange (SCE) in vitro, Assay Code: SC1T, Evaluation Type: Evaluation B (Post-1980)) is “no conclusion”.

`[O-2].[O-2].[O-2].[Sb+3].[Sb+3]`: the mutagenic call under setting [4] is “active; positive”. On to `O=C(O)c1c(Cl)c(Cl)c(Cl)c(Cl)c1-c1c2cc(Br)c(=O)c(Br)c-2oc2c(Br)c(O)c(Br)cc12`, for which the mutagenic call under setting [5] is on record as “no conclusion”. As for `[Cl][Mn][Cl]`, the mutagenic call was “active; positive” under setting [4]; “active; positive” (Species/Cell Type: Fischer rat embryo (RLV/1706) cells, Assay Type: Cell transformation, viral enhanced, Assay Code: CTR+, Evaluation Type: Evaluation A (Pre-1980)); “no conclusion” (Species/Cell Type: Nonhuman, Assay Type: Sister-chromatid exchange (SCE) in vitro, Assay Code: SC2T, Evaluation Type: Evaluation B (Post-1980)); “active; positive” (Species/Cell Type: Syrian hamster embryo (SA7/SHE) cells, Assay Type: Cell transformation, viral enhanced, Assay Code: CT7+, Evaluation Type: Evaluation A (Pre-1980)). With `CSC\C=C(C)/C=C\C=C(C)/C=C\C1=C(C)CCCC1(C)C`, the mutagenic call (Species/Cell Type: Human, Assay Type: Sister-chromatid exchange (SCE) in vitro, Assay Code: SC1+D, Dose Response: With dose response, Evaluation Type: Evaluation B (Post-1980)) was “active; positive”. For the compound `CCN(CC)CCCNC(=O)N/N=C/c1ccc([N+](=O)[O-])o1`, under setting [6], the mutagenic call was “active; positive”. In the case of `O=C(CNC(=O)c1ccccc1)NO`, the mutagenic call under setting [3] is “active; positive”. As for `COc1cc(Cc2cnc(N)nc2N)cc(OC)c1OC`, the mutagenic call runs as follows: (Species/Cell Type: Neurospora crassa, Assay Type: Aneuploidy, chromosome aberrations, Assay Code: NEN+, Evaluation Type: Evaluation A (Pre-1980)) “active; positive”; (Species/Cell Type: Nonhuman, Assay Type: Sister-chromatid exchange (SCE) in vitro, Assay Code: SC2+, Evaluation Type: Evaluation B (Post-1980)) “active; positive”. Take `COc1cc(CNC(=O)CCCC/C=C/C(C)C)ccc1O`: the mutagenic call under setting [7] is “active; positive”. As to `C=C[C@H]1CN2CC[C@H]1C[C@H]2[C@H](O)c1ccnc2ccc(OC)cc12`, the mutagenic call is “active; positive” under setting [7] and “active; positive” (Species/Cell Type: Nonhuman, Assay Type: Sister-chromatid exchange (SCE) in vivo, Assay Code: SC3+D, Dose Response: With dose response, Evaluation Type: Evaluation B (Post-1980)). For the compound `CC(=O)Nc1ccc(-c2ccc(NC(C)=O)cc2)cc1`, the call under setting [8] is “active; positive”.

In the case of `O=[N+]([O-])c1ccc(-c2csc(Nc3ccccc3)n2)o1`, the mutagenic call under setting [9] is “active; positive” and the mutagenic call (Species/Cell Type: Escherichia coli WP2 UVRA, Assay Type: Tryptophan reverse gene mutation, Assay Code: WPU-, Evaluation Type: Evaluation A (Pre-1980)) was “inactive; negative”. For `O=[N+]([O-])c1ccc(-c2nc(N(CCO)CCO)c3ccccc3n2)s1`, the mutagenic call under setting [2] is “no conclusion”.

On to `CCN(CCCl)CCCNc1ccnc2ccc(OC)cc12`, for which the mutagenic call (Species/Cell Type: Neurospora crassa, Assay Type: Reverse gene mutation, Assay Code: NER+, Evaluation Type: Evaluation A (Pre-1980)) is “active; positive”. For `Cc1c2cc[n+](C)cc2c(C)c2c1[nH]c1ccc(O)cc12`, the mutagenic call (Species/Cell Type: Chinese hamster ovary (CHO) cells, Assay Type: Forward gene mutation at the HPRT locus, Assay Code: CHO+, Evaluation Type: Evaluation B (Post-1980)) is “active; positive”.

For `O=C=NCCCl`, under setting [1], the mutagenic call was “inactive; negative”.

With `O=C1OCCN1N=Cc1ccc([N+](=O)[O-])o1`, the mutagenic call is, setting by setting: under setting [4], “active; positive”; (Species/Cell Type: Drosophila melanogaster, Assay Type: Sex-linked recessive lethal gene mutation, Assay Code: SRL+, Evaluation Type: Evaluation A (Pre-1980)) “active; positive”; under setting [9], “active; positive”; under setting [6], “active; positive”; (Species/Cell Type: Human diploid fibroblasts, Assay Type: Unscheduled DNA synthesis (UDS) in vitro, DNA effects, Assay Code: UDH-, Evaluation Type: Evaluation A (Pre-1980)) “inactive; negative”; (Species/Cell Type: Human lymphocytes, Assay Type: Sister-chromatid exchange (SCE) in vitro, Assay Code: SCL+, Evaluation Type: Evaluation B (Post-1980)) “active; positive”. The mutagenic call runs as follows: (Species/Cell Type: Human lymphocytes, Assay Type: Sister-chromatid exchange (SCE) in vitro, Assay Code: SCLT, Evaluation Type: Evaluation A (Pre-1980)) “no conclusion”; (Species/Cell Type: Human, Assay Type: Sister-chromatid exchange (SCE) in vitro, Assay Code: SC1+, Evaluation Type: Evaluation B (Post-1980)) “active; positive”; (Species/Cell Type: Human, Assay Type: Sister-chromatid exchange (SCE) in vitro, Assay Code: SC1T, Evaluation Type: Evaluation A (Pre-1980)) “no conclusion”. As for `CS(=O)(=O)OCCO`, the mutagenic call runs as follows: (Species/Cell Type: Arabidopsis species, Assay Type: Gene mutation, Assay Code: ARM+D, Dose Response: With dose response, Evaluation Type: Evaluation A (Pre-1980)) “active; positive”; (Species/Cell Type: Hordeum vulgare (barley), Assay Type: Chromosome aberrations, Assay Code: HOC+D, Dose Response: With dose response, Evaluation Type: Evaluation A (Pre-1980)) “active; positive”.

Consider `NC(=O)N(CCC[C@H](N)C(=O)O)N=O`, for which, under setting [3], the mutagenic call is “active; positive”. As for `CC(COc1ccccc1)N(CCCl)Cc1ccccc1` (stereo not given), the call under setting [8] is “active; positive”. Take `Nc1nc(N)nc(-c2ccc([N+](=O)[O-])o2)n1`: under setting [3], the mutagenic call was “active; positive”. Consider `Cc1ccc2ccccc2n1`, for which, under “Species/Cell Type: Salmonella typhimurium (one or more of the five standard strains: TA98, TA100, TA1535, TA1537, and TA1538), Assay Type: Histidine reverse gene mutation, Ames assay, Assay Code: SAL+*, Activation: With metabolic activation, Evaluation Type: Evaluation A (Pre-1980)”, the mutagenic call was “active; positive”. Take `Cc1cc(Cc2ccc(N)c(C)c2)ccc1N`: the call under setting [8] is “active; positive”. As for `O=C1C(c2[nH]c3ccc(S(=O)(=O)O)cc3c2O)=Nc2ccc(S(=O)(=O)O)cc21`, the mutagenic call reads like this: under setting [5], “no conclusion”; (Species/Cell Type: Bacillus subtilis (H17 vs M45T), Assay Type: Rec-assay, spot test, DNA effects (bacterial DNA repair), Assay Code: REXT, Evaluation Type: Evaluation A (Pre-1980)) “no conclusion”; (Species/Cell Type: Saccharomyces cerevisiae, Assay Type: Mitotic recombination or gene conversion, Assay Code: YEC-, Evaluation Type: Evaluation A (Pre-1980)) “inactive; negative”; (Species/Cell Type: Salmonella typhimurium (one or more of the five standard strains: TA98, TA100, TA1535, TA1537, and TA1538), Assay Type: Histidine reverse gene mutation, Ames assay, Assay Code: SAL-, Evaluation Type: Evaluation A (Pre-1980)) “inactive; negative”. In the case of `[Cl][W]([Cl])([Cl])([Cl])([Cl])[Cl]`, the mutagenic call (Species/Cell Type: Syrian hamster embryo (SA7/SHE) cells, Assay Type: Cell transformation, viral enhanced, Assay Code: CT7-, Evaluation Type: Evaluation A (Pre-1980)) was “inactive; negative”.

The values are drawn from PubChem BioAssay AID1259408 (Genetic Toxicology Data Bank (GENE-TOX), 2018).
